Source: US20110190365A1, “Insecticidal 4-phenyl-1H-pyrazoles” (Bayer Crop Science AG, priority 2008, published 2011)

Assay: log P by HPLC on a reversed-phase column (C18), EEC Directive 79/831 Annex V.A8
Format: physicochemical
Details: HCOOH
Protocol: The stated log P values were determined in accordance with EEC Directive 79/831 Annex V.A8 by HPLC (High Performance Liquid Chromatography) using a reversed-phase column (C18).

SMILES | log P (HCOOH)
Cc1cc(-n2nc(C(F)(F)F)c(-c3cc(Cl)cc(Cl)c3)c2[S+](C)[O-])ccc1C(=O)NCC(F)(F)C(F)F (single isomer, unassigned) [I-A-Q2-283] | I-A-Q2-283: log P (HCOOH): 4.12
Cc1cc(-n2nc(C(F)(F)F)c(-c3cc(Cl)cc(Cl)c3)c2[S+](C)[O-])ccc1C(=O)NCC(F)(F)C(F)F (single isomer, unassigned) [I-A-Q2-284] | I-A-Q2-284: log P (HCOOH): 4.32

Same assay, conditions: HPLC, reversed-phase C18, mobile phase with formic acid

SMILES | log P (HCOOH)
COC(C)c1nn(-c2ccc(-n3cncn3)c(C#N)c2)c(N)c1-c1cc(Cl)cc(C(F)(F)F)c1 (stereo not drawn) [I-A-Q1-023] | I-A-Q1-023: log P (HCOOH): 2.76
N#Cc1cc(-n2nc(C(F)(F)F)c(-c3cc(Cl)cc(Cl)c3)c2N)ccc1-n1cncn1 [I-A-Q1-024] | I-A-Q1-024: log P (HCOOH): 3.90
Cc1nn(-c2ccc(-n3cncn3)c(C#N)c2)c(N)c1-c1ccc(Cl)c(Cl)c1 [I-A-Q1-025] | I-A-Q1-025: log P (HCOOH): 3.02
N#Cc1cc(-n2nc(C(F)(F)F)c(-c3cc(Cl)cc(Cl)c3)c2N)ccc1-n1nc[nH]c1=O [I-A-Q1-026] | I-A-Q1-026: log P (HCOOH): 3.37
N#Cc1cc(-n2nc(C(F)(F)F)c(-c3cc(C(F)(F)F)cc(C(F)(F)F)c3)c2N)ccc1-n1cncn1 [I-A-Q1-027] | I-A-Q1-027: log P (HCOOH): 4.07
Cc1nn(-c2ccc(-n3cncn3)c(C#N)c2)c(N)c1-c1cc(Cl)ccc1Cl [I-A-Q1-028] | I-A-Q1-028: log P (HCOOH): 2.65
Cc1nn(-c2ccc(-n3cncn3)c(C#N)c2)c(N)c1-c1ccc(Cl)cc1 [I-A-Q1-029] | I-A-Q1-029: log P (HCOOH): 2.65
N#Cc1cc(-n2nc(C(F)F)c(-c3ccc(Cl)cc3)c2N)ccc1-n1cncn1 [I-A-Q1-030] | I-A-Q1-030: log P (HCOOH): 2.92
N#Cc1cc(-n2nc(C(F)(F)F)c(-c3ccc(Cl)c(Cl)c3)c2N)ccc1-n1cncn1 [I-A-Q1-031] | I-A-Q1-031: log P (HCOOH): 3.60
N#Cc1cc(-n2nc(C(F)(F)F)c(-c3ccc(Cl)c(F)c3)c2N)ccc1-n1cncn1 [I-A-Q1-032] | I-A-Q1-032: log P (HCOOH): 3.28
N#Cc1cc(-n2nc(C(F)(F)F)c(-c3c(F)cc(F)cc3F)c2N)ccc1-n1cncn1 [I-A-Q1-034] | I-A-Q1-034: log P (HCOOH): 3.10
N#Cc1cc(-n2nc(C(F)(F)F)c(-c3ccccc3Cl)c2N)ccc1-n1cncn1 [I-A-Q1-035] | I-A-Q1-035: log P (HCOOH): 2.80
N#Cc1cc(-n2nc(C(F)(F)F)c(-c3ccc(F)c(Cl)c3)c2N)ccc1-n1cncn1 [I-A-Q1-036] | I-A-Q1-036: log P (HCOOH): 3.24
N#Cc1cc(-n2nc(C(F)(F)F)c(-c3cc(F)cc(Cl)c3)c2N)ccc1-n1cncn1 [I-A-Q1-037] | I-A-Q1-037: log P (HCOOH): 3.33
Cc1cc(C)cc(-c2c(C(F)(F)F)nn(-c3ccc(-n4cncn4)c(C#N)c3)c2N)c1 [I-A-Q1-038] | I-A-Q1-038: log P (HCOOH): 3.33
Cc1ccccc1-c1c(C(F)(F)F)nn(-c2ccc(-n3cncn3)c(C#N)c2)c1N [I-A-Q1-039] | I-A-Q1-039: log P (HCOOH): 2.89
N#Cc1cc(-n2nc(C(F)(F)F)c(-c3ccc(Br)cc3)c2N)ccc1-n1cncn1 [I-A-Q1-040] | I-A-Q1-040: log P (HCOOH): 3.44
N#Cc1cc(-n2nc(C(F)(F)F)c(-c3cc(F)c(F)c(F)c3)c2N)ccc1-n1cncn1 [I-A-Q1-041] | I-A-Q1-041: log P (HCOOH): 3.19
N#Cc1cc(-n2nc(C(F)(F)F)c(-c3cccc(F)c3)c2N)ccc1-n1cncn1 [I-A-Q1-042] | I-A-Q1-042: log P (HCOOH): 2.84
N#Cc1cc(-n2nc(C(F)(F)F)c(-c3ccc(I)cc3)c2N)ccc1-n1cncn1 [I-A-Q1-043] | I-A-Q1-043: log P (HCOOH): 3.61
N#Cc1cc(-n2nc(C(F)(F)F)c(-c3ccc(F)c(F)c3)c2N)ccc1-n1cncn1 [I-A-Q1-044] | I-A-Q1-044: log P (HCOOH): 3.10
N#Cc1cc(-n2nc(C(F)(F)F)c(-c3ccc(Cl)cc3Cl)c2N)ccc1-n1cncn1 [I-A-Q1-045] | I-A-Q1-045: log P (HCOOH): 2.64
N#Cc1cc(-n2nc(C(F)(F)F)c(-c3cccc(Br)c3)c2N)ccc1-n1cncn1 [I-A-Q1-046] | I-A-Q1-046: log P (HCOOH): 3.24
N#Cc1ccc(-c2c(C(F)(F)F)nn(-c3ccc(-n4cncn4)c(C#N)c3)c2N)cc1 [I-A-Q1-047] | I-A-Q1-047: log P (HCOOH): 2.64
N#Cc1cc(-n2nc(C(F)F)c(-c3ccc(F)cc3F)c2N)ccc1-n1cncn1 [I-A-Q1-048] | I-A-Q1-048: log P (HCOOH): 2.39
N#Cc1cc(-n2nc(C(F)(F)Cl)c(-c3cc(Cl)cc(C(F)(F)F)c3)c2N)ccc1-n1cncn1 [I-A-Q1-049] | I-A-Q1-049: log P (HCOOH): 4.11
N#Cc1cc(-n2nc(C(F)(F)C(F)(F)F)c(-c3cc(C(F)(F)F)cc(C(F)(F)F)c3)c2N)ccc1-n1cncn1 [I-A-Q1-050] | I-A-Q1-050: log P (HCOOH): 4.34

SMILES | log P (HCOOH)
Cc1nn(-c2ccc(-n3cncn3)c(C#N)c2)c(N)c1-c1c(F)cccc1Cl [I-A-Q1-051] | I-A-Q1-051: log P (HCOOH): 2.27
Cc1nn(-c2ccc(-n3cncn3)c(C#N)c2)c(N)c1-c1ccc(F)cc1Cl [I-A-Q1-052] | I-A-Q1-052: log P (HCOOH): 2.43
Cc1nn(-c2ccc(-n3cncn3)c(C#N)c2)c(N)c1-c1cccc(Cl)c1 [I-A-Q1-053] | I-A-Q1-053: log P (HCOOH): 2.66
Cc1nn(-c2ccc(-n3cncn3)c(C#N)c2)c(N)c1-c1c(F)cccc1F [I-A-Q1-054] | I-A-Q1-054: log P (HCOOH): 2.18
Cc1nn(-c2ccc(-n3cncn3)c(C#N)c2)c(N)c1-c1c(Cl)cccc1Cl [I-A-Q1-055] | I-A-Q1-055: log P (HCOOH): 2.47
Cc1nn(-c2ccc(-n3cncn3)c(C#N)c2)c(N)c1-c1ccc(Cl)cc1Cl [I-A-Q1-056] | I-A-Q1-056: log P (HCOOH): 2.80
Cc1nn(-c2ccc(-n3cncn3)c(C#N)c2)c(N)c1-c1ccc(F)cc1F [I-A-Q1-057] | I-A-Q1-057: log P (HCOOH): 2.35
COc1ccc(-c2c(C)nn(-c3ccc(-n4cncn4)c(C#N)c3)c2N)cc1 [I-A-Q1-058] | I-A-Q1-058: log P (HCOOH): 2.11
Cc1nn(-c2ccc(-n3cncn3)c(C#N)c2)c(N)c1-c1ccc(F)cc1 [I-A-Q1-059] | I-A-Q1-059: log P (HCOOH): 2.30
Cc1nn(-c2ccc(-n3cncn3)c(C#N)c2)c(N)c1-c1ccccc1Cl [I-A-Q1-060] | I-A-Q1-060: log P (HCOOH): 2.27
Cc1nn(-c2ccc(-n3cncn3)c(C#N)c2)c(N)c1-c1cc(F)ccc1F [I-A-Q1-061] | I-A-Q1-061: log P (HCOOH): 2.29
CCc1nn(-c2ccc(-n3cncn3)c(C#N)c2)c(N)c1-c1ccc(Cl)cc1 [I-A-Q1-062] | I-A-Q1-062: log P (HCOOH): 3.09
N#Cc1cc(-n2nc(-c3ccccc3)c(-c3ccc(Cl)cc3)c2N)ccc1-n1cncn1 [I-A-Q1-063] | I-A-Q1-063: log P (HCOOH): 3.53
N#Cc1cc(-n2nc(C3CC3)c(-c3ccc(Cl)cc3)c2N)ccc1-n1cncn1 [I-A-Q1-064] | I-A-Q1-064: log P (HCOOH): 3.31
CCCc1nn(-c2ccc(-n3cncn3)c(C#N)c2)c(N)c1-c1ccc(Cl)cc1 [I-A-Q1-065] | I-A-Q1-065: log P (HCOOH): 3.33
Cc1nn(-c2ccc(-n3cncn3)c(C#N)c2)c(N)c1-c1ccccc1 [I-A-Q1-066] | I-A-Q1-066: log P (HCOOH): 2.14
Nc1c(-c2cc(Cl)cc(Cl)c2)c(C(F)(F)F)nn1-c1ccc(-n2cncn2)c(C(F)(F)F)c1 [I-A-Q1-068] | I-A-Q1-068: log P (HCOOH): 4.32
Nc1c(-c2cc(Cl)cc(Cl)c2)c(C(F)(F)F)nn1-c1ccc(-n2cncn2)c(Cl)c1 [I-A-Q1-069] | I-A-Q1-069: log P (HCOOH): 4.14
N#Cc1cc(-n2nc(C(F)(F)Oc3ccc(Cl)cc3)c(-c3cc(Cl)cc(C(F)(F)F)c3)c2N)ccc1-n1cncn1 [I-A-Q1-071] | I-A-Q1-071: log P (HCOOH): 4.84
N#Cc1cc(-n2nc(C(F)(F)Oc3cccc(Cl)c3)c(-c3cc(Cl)cc(C(F)(F)F)c3)c2N)ccc1-n1cncn1 [I-A-Q1-072] | I-A-Q1-072: log P (HCOOH): 4.82
N#Cc1cc(-n2nc(C(F)(F)Oc3ccccc3Cl)c(-c3cc(Cl)cc(C(F)(F)F)c3)c2N)ccc1-n1cncn1 [I-A-Q1-073] | I-A-Q1-073: log P (HCOOH): 4.51
N#Cc1cc(-n2nc(C(F)(F)Oc3ccccc3)c(-c3cc(Cl)cc(C(F)(F)F)c3)c2N)ccc1-n1cncn1 [I-A-Q1-074] | I-A-Q1-074: log P (HCOOH): 4.33
Nc1c(-c2cc(Cl)cc(Cl)c2)c(C(F)(F)F)nn1-c1ccc(-n2cncn2)c(-n2cncn2)c1 [I-A-Q1-075] | I-A-Q1-075: log P (HCOOH): 3.28
N#Cc1cc(-n2nc(C(F)(F)F)c(-c3cc(Cl)cc(Cl)c3)c2N)ccc1-n1ccnc1 [I-A-Q1-076] | I-A-Q1-076: log P (HCOOH): 2.98
N#Cc1cc(-n2nc(C(F)(F)F)c(-c3cc(Cl)cc(Cl)c3)c2N)ccc1-n1ccnc1C#N [I-A-Q1-077] | I-A-Q1-077: log P (HCOOH): 4.05
N#Cc1cc(-n2nc(C(F)(F)F)c(-c3cc(Cl)cc(Cl)c3)c2N)ccc1-n1cc(Br)cn1 [I-A-Q1-078] | I-A-Q1-078: log P (HCOOH): 4.83
N#Cc1cnn(-c2ccc(-n3nc(C(F)(F)F)c(-c4cc(Cl)cc(Cl)c4)c3N)cc2C#N)c1 [I-A-Q1-079] | I-A-Q1-079: log P (HCOOH): 4.28

Same assay, conditions: HPLC, reversed-phase C18, mobile phase with formic acid; read-out: log P (HCOOH)

SMILES | chromatographic logP
N#Cc1cc(N)ccc1-n1cncn1 [5-Amino-2-[1,2,4]triazol-1-ylbenzonitrile] | 1.01
